The text below walks through data of ChEMBL document CHEMBL4825677, “Design, synthesis and biological evaluation of novel benzofuran derivatives as potent LSD1 inhibitors” (Eur J Med Chem, 2021).

pIC50: −log10 of the molar value.

A short description of data set [1]: Metabolic stability in human liver microsome assessed as intrinsic clearance by LC-MS/MS analysis. Particulars: liver microsomes, read-out: CLH; call rule not given here. The data set is classed as ADME. (Liver microsomes are vesicles of endoplasmic reticulum, rich in cytochrome P450 enzymes.)
Data set [2] deals with T1, Amine oxidase [flavin-containing] B (Homo sapiens, UniProt P27338).
T1 sequence (P27338 whole entry): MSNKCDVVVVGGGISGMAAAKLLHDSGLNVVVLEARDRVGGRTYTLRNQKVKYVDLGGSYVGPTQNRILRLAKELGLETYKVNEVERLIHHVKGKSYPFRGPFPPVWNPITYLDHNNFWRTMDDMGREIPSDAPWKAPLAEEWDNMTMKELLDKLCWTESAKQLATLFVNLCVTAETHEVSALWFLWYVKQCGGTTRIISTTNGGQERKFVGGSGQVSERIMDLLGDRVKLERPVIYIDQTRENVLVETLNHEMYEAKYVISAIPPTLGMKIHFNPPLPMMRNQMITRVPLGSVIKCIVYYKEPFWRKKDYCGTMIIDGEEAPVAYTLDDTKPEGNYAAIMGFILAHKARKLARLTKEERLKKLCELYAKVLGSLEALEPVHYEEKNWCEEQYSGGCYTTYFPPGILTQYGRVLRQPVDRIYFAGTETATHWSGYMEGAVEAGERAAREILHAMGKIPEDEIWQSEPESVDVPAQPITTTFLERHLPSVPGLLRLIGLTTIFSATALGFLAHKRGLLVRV
The experiment in a line: Inhibition of N-terminal FLAG-tagged human recombinant MAO-B expressed in baculovirus-infected Sf9 cells by […]. In general terms: A flow cytometer gives signals particle by particle.

Data set [3] can be described thus: Microsomal stability in human liver microsomes assessed as parent compound remaining after 60 mins in absence of NADPH regenerating system by LC-MS/MS analysis. Type of data set: ADME, Microsome. Particulars: read-out: Stabilty.
A further data set concerns A549. The experiment in a line: cells. The settings on record: Homo sapiens, A549, 72 h.
Data set [4] is described as follows: Microsomal stability in human liver microsomes assessed as parent compound remaining after 60 mins in presence of NADPH regenerating system by LC-MS/MS analysis. The settings on record: read-out: Stabilty. Type of data set: ADME, Microsome.
A further data set addresses Cytochrome P450 2D6 (Homo sapiens, UniProt P10635). Briefly: Inhibition of CYP2D6 in human liver microsomes at 10 uM by LC-MS/MS analysis. Type of data set: ADME.
Data set [5] has as its target T2, Amine oxidase [flavin-containing] A (Homo sapiens, UniProt P21397).
T2 sequence (P21397 whole entry): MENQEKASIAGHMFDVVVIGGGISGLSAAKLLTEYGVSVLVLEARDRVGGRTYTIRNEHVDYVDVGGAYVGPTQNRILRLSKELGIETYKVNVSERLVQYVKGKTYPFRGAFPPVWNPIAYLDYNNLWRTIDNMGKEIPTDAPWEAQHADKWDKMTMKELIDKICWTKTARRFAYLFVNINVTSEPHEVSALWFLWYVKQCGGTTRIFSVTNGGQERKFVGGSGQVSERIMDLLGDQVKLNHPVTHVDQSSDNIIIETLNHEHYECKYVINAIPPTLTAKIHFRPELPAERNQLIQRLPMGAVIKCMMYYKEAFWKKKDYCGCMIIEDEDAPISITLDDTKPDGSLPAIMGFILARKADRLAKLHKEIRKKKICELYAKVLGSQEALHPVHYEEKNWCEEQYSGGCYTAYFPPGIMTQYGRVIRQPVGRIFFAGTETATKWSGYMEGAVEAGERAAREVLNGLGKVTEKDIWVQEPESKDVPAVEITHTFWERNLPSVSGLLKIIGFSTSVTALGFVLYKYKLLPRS
Briefly: Inhibition of N-terminal FLAG-tagged human recombinant MAO-A expressed in baculovirus-infected Sf9 cells by […].

The subject of a further data set is THP-1. Briefly: cells. The settings on record: Homo sapiens, THP-1, 72 h.
The subject of the next data set is MCF7. The experiment in a line: cells. The settings on record: Homo sapiens, MCF7, 72 h.
Data set [6] in a line: Metabolic stability in human liver microsomes assessed as half-life by LC-MS/MS analysis. The data set is classed as ADME, Microsome.
A further data set concerns the target Cytochrome P450 3A4 (Homo sapiens, UniProt P08684). The experiment in a line: Inhibition of CYP3A4 in human liver microsomes at 10 uM by LC-MS/MS analysis. The data set is classed as ADME.
Another data set relates to THLE-2. Briefly: cells. Particulars: Homo sapiens, THLE-2, 72 h.
Data set [7] relates to MGC-803. The experiment in a line: cells. The settings on record: Homo sapiens, MGC-803, 72 h.
Description: Antiproliferative activity against human MGC-803 cells assessed as reduction in cell viability incubated for 72 hrs by CCK8 assay
The next data set concerns the target Cytochrome P450 2C9 (Homo sapiens, UniProt P11712). The experiment in a line: Inhibition of CYP2C9 in human liver microsomes at 10 uM by LC-MS/MS analysis. Type of data set: ADME.
In another data set the target is T3, Cytochrome P450 1A2 (Homo sapiens, UniProt P05177).
T3 sequence (P05177 whole entry): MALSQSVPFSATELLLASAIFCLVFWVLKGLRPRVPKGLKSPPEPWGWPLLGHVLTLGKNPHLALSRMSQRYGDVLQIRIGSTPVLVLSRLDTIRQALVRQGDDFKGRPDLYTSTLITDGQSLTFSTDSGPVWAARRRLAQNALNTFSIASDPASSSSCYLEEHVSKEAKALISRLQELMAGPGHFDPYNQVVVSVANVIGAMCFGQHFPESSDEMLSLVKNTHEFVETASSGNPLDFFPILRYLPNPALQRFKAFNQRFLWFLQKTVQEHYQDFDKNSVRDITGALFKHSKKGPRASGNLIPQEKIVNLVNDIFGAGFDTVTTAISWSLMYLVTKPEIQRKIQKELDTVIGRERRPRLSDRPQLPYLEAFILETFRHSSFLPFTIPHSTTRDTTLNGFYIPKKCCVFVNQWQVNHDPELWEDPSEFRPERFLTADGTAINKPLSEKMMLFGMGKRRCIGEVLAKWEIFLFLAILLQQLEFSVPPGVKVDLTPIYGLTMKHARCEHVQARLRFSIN
Briefly: Inhibition of CYP1A2 in human liver microsomes at 10 uM by LC-MS/MS analysis. The data set is classed as ADME.

Data set [8] concerns NCI-H460. The experiment in a line: cells. Particulars: Homo sapiens, NCI-H460, 72 h.
Description: Antiproliferative activity against human NCI-H460 cells assessed as reduction in cell viability incubated for 72 hrs by CCK8 assay
A further data set has as its target Cytochrome P450 2C19 (Homo sapiens, UniProt P33261). The experiment in a line: Inhibition of CYP2C19 in human liver microsomes at 10 uM by LC-MS/MS analysis. The data set is classed as ADME.
A short description of data set [9]: Metabolic stability in human liver assessed as intrinsic clearance by LC-MS/MS analysis. Particulars: read-out: CLH. The data set is classed as ADME, tissue-based.
Data set [10] addresses Lysine-specific histone demethylase 1A (Homo sapiens, UniProt O60341). The experiment in a line: Inhibition of human recombinant LSD1 by horseradish peroxidase-coupled fluorometric assay.
The test system of data set [11] is NCI-H460. The experiment in a line: Induction of apoptosis in human NCI-H460 cells assessed as late apoptotic cells at 2 uM incubated for 48 hrs by AnnexinV-FITC/propidium iodide staining based flow cytometric analysis (reference value: 1.36%). The data set is classed as functional.
The subject of data set [12] is NCI-H460. Briefly: Induction of apoptosis in human NCI-H460 cells assessed as late apoptotic cells at 1 uM incubated for 48 hrs by AnnexinV-FITC/propidium iodide staining based flow cytometric analysis (reference value: 1.36%). Type of data set: functional.
Data set [13] relates to NCI-H460. The experiment in a line: Induction of apoptosis in human NCI-H460 cells assessed as early apoptotic cells at 3 uM incubated for 48 hrs by AnnexinV-FITC/propidium iodide staining based flow cytometric analysis (reference value: 2.22%). The data set is classed as functional.
The subject of data set [14] is NCI-H460. Briefly: Inhibition of cell migration in human NCI-H460 assessed as reduction in cell migration at 0.3 to 1.2 uM by wound healing assay. The settings on record: dose 0.3-1.2 µM, time 24-48 hrs, TDE = time-dependent effect. The data set is classed as functional, cell-based.
For data set [15], the system named is NCI-H460. Briefly: Induction of apoptosis in human NCI-H460 cells assessed as early apoptotic cells at 1 uM incubated for 48 hrs by AnnexinV-FITC/propidium iodide staining based flow cytometric analysis (reference value: 2.22%). Type of data set: functional.
For data set [16], the system named is NCI-H460. The experiment in a line: Induction of apoptosis in human NCI-H460 cells assessed as late apoptotic cells at 3 uM incubated for 48 hrs by AnnexinV-FITC/propidium iodide staining based flow cytometric analysis (reference value: 1.36%). Type of data set: functional.
The subject of data set [17] is NCI-H460. Briefly: Inhibition of cell migration in human NCI-H460 cells assessed as reduction in cell migration measured after 48 hrs by wound healing assay. The data set is classed as functional, cell-based. The settings on record: dose 0.3-1.2 µM.
The subject of data set [18] is NCI-H460. The experiment in a line: Induction of apoptosis in human NCI-H460 cells assessed as early apoptotic cells at 2 uM incubated for 48 hrs by AnnexinV-FITC/propidium iodide staining based flow cytometric analysis (reference value: 2.22%). Type of data set: functional.
Data set [19] deals with MGC-803. Briefly: Antiproliferative activity against human MGC-803 cells assessed as inhibition of cell growth by MTT assay. The data set is classed as functional, cell-based. (In general: Formazan colour is commonly taken as a measure of viable cells.)

Sequence of Cytochrome P450 2C19 (P33261 whole entry): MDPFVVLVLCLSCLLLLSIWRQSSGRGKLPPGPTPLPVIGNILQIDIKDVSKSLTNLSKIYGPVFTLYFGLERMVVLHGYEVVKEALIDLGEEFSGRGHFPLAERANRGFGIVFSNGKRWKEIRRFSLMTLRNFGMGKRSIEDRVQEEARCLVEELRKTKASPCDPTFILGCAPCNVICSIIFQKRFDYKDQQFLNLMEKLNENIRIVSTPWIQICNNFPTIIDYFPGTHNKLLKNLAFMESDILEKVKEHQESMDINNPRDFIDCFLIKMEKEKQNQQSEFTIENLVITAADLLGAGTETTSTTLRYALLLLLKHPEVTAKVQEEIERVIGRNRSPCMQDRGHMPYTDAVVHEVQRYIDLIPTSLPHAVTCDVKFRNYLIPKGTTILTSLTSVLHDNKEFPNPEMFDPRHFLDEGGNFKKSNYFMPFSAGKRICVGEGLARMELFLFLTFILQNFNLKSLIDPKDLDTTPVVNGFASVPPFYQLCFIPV
Sequence of Cytochrome P450 3A4 (P08684 whole entry): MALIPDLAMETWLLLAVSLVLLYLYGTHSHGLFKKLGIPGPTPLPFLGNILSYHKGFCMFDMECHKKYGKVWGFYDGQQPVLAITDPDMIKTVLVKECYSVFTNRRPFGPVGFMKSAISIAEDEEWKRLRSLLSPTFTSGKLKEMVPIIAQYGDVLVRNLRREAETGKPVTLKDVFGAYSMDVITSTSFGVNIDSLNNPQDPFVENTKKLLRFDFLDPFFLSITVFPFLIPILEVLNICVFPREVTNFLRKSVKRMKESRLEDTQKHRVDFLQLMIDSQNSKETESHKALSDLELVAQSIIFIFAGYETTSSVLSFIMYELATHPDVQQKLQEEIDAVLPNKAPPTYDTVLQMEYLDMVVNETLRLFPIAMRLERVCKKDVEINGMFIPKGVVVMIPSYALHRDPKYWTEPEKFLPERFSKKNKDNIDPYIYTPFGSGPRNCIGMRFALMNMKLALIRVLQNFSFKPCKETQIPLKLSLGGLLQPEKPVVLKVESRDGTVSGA
Sequence of Cytochrome P450 2C9 (P11712 whole entry): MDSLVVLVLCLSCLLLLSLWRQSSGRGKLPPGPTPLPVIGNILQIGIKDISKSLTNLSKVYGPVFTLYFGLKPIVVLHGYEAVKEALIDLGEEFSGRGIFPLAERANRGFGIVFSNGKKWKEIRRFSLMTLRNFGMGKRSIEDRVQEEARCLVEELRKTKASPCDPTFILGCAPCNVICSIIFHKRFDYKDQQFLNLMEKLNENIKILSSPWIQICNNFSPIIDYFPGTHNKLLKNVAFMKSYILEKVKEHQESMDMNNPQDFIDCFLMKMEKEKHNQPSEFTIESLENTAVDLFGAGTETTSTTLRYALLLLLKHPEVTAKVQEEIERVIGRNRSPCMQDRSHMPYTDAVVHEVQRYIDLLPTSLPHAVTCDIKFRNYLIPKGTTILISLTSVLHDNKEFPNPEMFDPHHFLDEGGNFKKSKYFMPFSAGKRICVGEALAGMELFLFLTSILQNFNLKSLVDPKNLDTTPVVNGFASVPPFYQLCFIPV
Sequence of Cytochrome P450 2D6 (P10635 whole entry): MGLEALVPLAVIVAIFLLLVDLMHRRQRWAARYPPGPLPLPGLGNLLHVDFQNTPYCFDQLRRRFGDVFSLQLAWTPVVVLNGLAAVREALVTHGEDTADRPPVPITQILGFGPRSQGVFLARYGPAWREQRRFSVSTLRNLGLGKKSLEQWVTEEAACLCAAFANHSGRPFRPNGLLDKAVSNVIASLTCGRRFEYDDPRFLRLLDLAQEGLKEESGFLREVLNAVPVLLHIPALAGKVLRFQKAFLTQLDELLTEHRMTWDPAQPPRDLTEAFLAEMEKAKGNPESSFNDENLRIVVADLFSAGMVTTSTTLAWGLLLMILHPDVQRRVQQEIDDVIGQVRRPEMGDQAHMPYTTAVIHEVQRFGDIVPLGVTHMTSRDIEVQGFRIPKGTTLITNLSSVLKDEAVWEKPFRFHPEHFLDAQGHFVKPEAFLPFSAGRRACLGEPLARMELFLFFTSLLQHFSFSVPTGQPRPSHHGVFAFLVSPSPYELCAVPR
Description for A549: Antiproliferative activity against human A549 cells assessed as reduction in cell viability incubated for 72 hrs by CCK8 assay
Description for MCF7: Antiproliferative activity against human MCF7 cells assessed as reduction in cell viability incubated for 72 hrs by CCK8 assay
Description for THLE-2: Cytotoxicity against human THLE-2 cells assessed as reduction in cell viability incubated for 72 hrs by CCK8 assay
Description for THP-1: Antiproliferative activity against human THP-1 cells assessed as reduction in cell viability incubated for 72 hrs by CCK8 assay

By pIC50 is commonly meant the IC50 on a negative log10 scale, so that one unit is a factor of ten. As usually defined, the half-life is the time in which the quantity being followed falls by half. With `Cc1ccc(-c2cc3occ(CNC4CCNC4)c3cc2-c2ccc(C#N)cc2)cc1` (stereo not drawn), the microsomal CLint in [1] was 14.6 µL/min/mg. Further, the pIC50 in [2] was less than 4.70; in the data set on A549, 5.26; in data set [5] it was less than 4.70; with THP-1 it was 5.22; with MCF7, 5.48; with THLE-2 it was 5.32. Moreover, the pIC50 with MGC-803 [7] is 5.23; with NCI-H460 [8], 5.67. For the same compound, the remaining at 1 h in data set [3] turned out to be 56.7%; in data set [4], 65.2%. For the same compound, the “inhibition (INH)” value against Cytochrome P450 2D6, against Cytochrome P450 3A4, on Cytochrome P450 2C9, on Cytochrome P450 1A2 and against Cytochrome P450 2C19 was “Active” each time. Further, the half-life in [6] stood at 1.58 h. In addition, the CLint scaled in [9] was determined as 13.2 mL/min/kg.
As for `NC1C[C@@H]1c1ccc(-c2cccc(O)c2)cc1` (single isomer, unassigned), the pIC50 in data set [10] is 4.39.
Turning to `Cc1ccc(-c2ncc(OCC3CCNCC3)cc2-c2ccc(C#N)cc2)cc1`, the Activity in the data set with NCI-H460 [11] was 0.9%; in the data set with NCI-H460 [12] it was 1.12%; in the data set on NCI-H460 [13] it was 1.6%; in the data set on NCI-H460 [15], 1.49%; in the data set on NCI-H460 [16], 1.21%; in the data set on NCI-H460 [18], 1.29%. Moreover, in data set [1], the microsomal CLint worked out at 13 µL/min/mg. Also, the values for the remaining at 1 h in data set [3] and in data set [4] were 88.6% and 67.5%, respectively. In addition, the negative logarithm of the IC50 (pIC50) in the data set on A549 is 5.01; in the data set on THP-1, 4.47; in the data set with MCF7, 4.77; in the data set with THLE-2, 5.11; with MGC-803 [7], 4.91. The “inhibition (INH)” value against Cytochrome P450 2D6, at Cytochrome P450 3A4, against Cytochrome P450 2C9, on Cytochrome P450 1A2 and against Cytochrome P450 2C19 was “Active” in each case. The inhibition result with NCI-H460 [14] was “Tde”; in the data set on NCI-H460 [17], “Dose-Dependent Effect”. Moreover, the half-life in [6] is 1.78 h. Also, the CLint scaled in data set [9] was determined as 11.7 mL/min/kg.
For `CNCCCN(C)Cc1coc2cc(-c3ccc(C)cc3)c(-c3ccc(C#N)cc3)cc12`, the microsomal CLint in data set [1] is 138 µL/min/mg. The negative-log IC50 (pIC50) in data set [2] was less than 4.70; in the data set on A549 it was 5.39; in data set [5] it was less than 4.70; in the data set with THP-1 it was 5.31; with MCF7 it was 5.47; with THLE-2 it was 5.38. In addition, the results for the negative-log IC50 (pIC50) in the data set on MGC-803 [7] and with NCI-H460 [8] were 5.19 and 5.73, respectively. The remaining at 1 h in data set [3] is 55.8%; in [4], 7.9%. Also, the “inhibition (INH)” value at Cytochrome P450 2D6, at Cytochrome P450 3A4, on Cytochrome P450 2C9, at Cytochrome P450 1A2 and against Cytochrome P450 2C19 was “Active” in each case. Also, in [6], the half-life is 0.168 h. In addition, the CLint scaled in data set [9] is 124 mL/min/kg.
`Cc1ccc(-c2cc3occ(CNC4CCC(N)CC4)c3cc2-c2ccc(C#N)cc2)cc1` (stereo not drawn): the pIC50 with A549 was 5.20; in the data set with THP-1, 5.15; in the data set with MCF7, 5.37; with THLE-2 it was 5.85; in the data set on MGC-803 [7] it was 5.20; with NCI-H460 [8], 5.80.
Consider `Cc1ccc(-c2cc3occ(CNCCN)c3cc2-c2ccc(C#N)cc2)cc1`, for which the negative logarithm of the IC50 (pIC50) in the data set with A549 was 5.61; with THP-1 it was 5.18; with MCF7, 5.24; in the data set with THLE-2 it was 5.40; with MGC-803 [7], 5.12; with NCI-H460 [8], 5.72.
As for `O=C(O)[C@H]1O[C@@H](Oc2cc3oc(-c4ccccc4)cc(=O)c3c(O)c2O)[C@H](O)[C@@H](O)[C@@H]1O` [BAICALIN], in the data set with MGC-803 [19], the pIC50 is 5.06.
